Reference: BindingDB's records for PubMed 10215672 (Taisho Pharmaceutical, 1999)
Values joined by “and” are separate entries in the source; they are usually repeats but may differ in a detail not shown here. Equal entries are not always repeated.

Columns and labels:
[1] = biological target: T1, Corticotropin-releasing factor receptor 1 (Rattus norvegicus, UniProt P35353)
T1 sequence (P35353 whole entry): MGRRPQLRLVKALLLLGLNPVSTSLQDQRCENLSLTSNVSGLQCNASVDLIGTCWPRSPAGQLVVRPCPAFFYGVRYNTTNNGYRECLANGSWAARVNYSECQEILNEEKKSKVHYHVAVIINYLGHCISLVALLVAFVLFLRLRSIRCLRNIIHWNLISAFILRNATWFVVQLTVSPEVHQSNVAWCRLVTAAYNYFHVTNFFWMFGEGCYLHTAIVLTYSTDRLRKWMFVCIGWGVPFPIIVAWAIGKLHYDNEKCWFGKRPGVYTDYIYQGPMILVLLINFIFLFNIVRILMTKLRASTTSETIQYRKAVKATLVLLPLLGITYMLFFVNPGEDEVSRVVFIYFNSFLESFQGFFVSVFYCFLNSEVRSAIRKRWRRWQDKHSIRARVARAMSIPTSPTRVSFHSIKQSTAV

[2] = biological target: Corticotropin-releasing factor receptor 2 (Rattus norvegicus, UniProt P47866)
Corticotropin-releasing factor receptor 2, sequence (P47866 whole entry): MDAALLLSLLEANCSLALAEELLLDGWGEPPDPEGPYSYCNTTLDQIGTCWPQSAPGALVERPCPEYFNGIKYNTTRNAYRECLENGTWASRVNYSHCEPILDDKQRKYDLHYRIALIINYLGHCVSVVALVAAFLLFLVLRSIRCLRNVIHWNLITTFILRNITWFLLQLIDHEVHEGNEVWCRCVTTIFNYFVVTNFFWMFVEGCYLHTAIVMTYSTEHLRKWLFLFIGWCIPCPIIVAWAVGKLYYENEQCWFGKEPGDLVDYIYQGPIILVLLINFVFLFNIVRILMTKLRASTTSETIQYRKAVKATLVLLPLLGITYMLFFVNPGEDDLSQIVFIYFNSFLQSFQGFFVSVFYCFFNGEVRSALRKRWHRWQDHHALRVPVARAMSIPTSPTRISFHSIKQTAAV

Row | Structure (SMILES) | Ki [1] | Ki [2] [nM]
1 | CCN(c1nc(C)cc(N2CCC=C(c3cccc(F)c3)C2)n1)c1ccc(CC(C)C)cc1Br [CRA1001] | 22.3 nM and 18.6 nM | > 10000
2 | CCCCN(CC)c1nc(C)nc2c1c(C)cn2-c1c(C)cc(C)cc1C | 1.8 nM | > 10000
3 | COCCN(CCOC)c1nc(C)nc2c1nnn2-c1ccc(C(C)C)cc1Br | 14.8 nM and 20.7 nM | > 10000
